Values quoted from earlier work, collected in article PMC11261219 (Clinical and Molecular Hepatology, 2024).

Experiments:
HBV DNA and HBV RNA = settings: added to patients taking NUCs, versus NUCs alone
HBV = settings: after 3 years

Molecule: O=C(NCc1cnc(C(F)(F)F)s1)c1ccc2c(c1)NC(=O)c1ccccc1S2(=O)=O [vebicorvir]
- suppression of HBV DNA and HBV RNA (HBV DNA and HBV RNA): further suppressed HBV DNA and HBV RNA more than with NUCs alone

Molecule: pegylated interferon [pegIFN]
- functional cure, patients (HBV): approximately 11%
